Drawing on patent publication US20230108906A1, “SUBSTITUTED BICYCLIC AND TRICYCLIC UREAS AND AMIDES, ANALOGUES THEREOF, AND METHODS USING SAME” (Arbutus Biopharma Corporation, priority 2019, published 2023), this text covers EC50 for 24 molecules.

Each structure is given as a SMILES string. Bounds are passed on as bounds.

One experiment deals with HBV rcDNA in HepDE19 cells. Put plainly: HepDE19 assay with bDNA quantitation of HBV rcDNA. The experiment is classed as cell-based, hepatitis B virus (HBV). As to conditions: Hepatitis B virus, HepDE19, 168 h, inhibition of rcDNA formation in HepDE19 cells (HepG2 derived), Tet-free medium, 7 day incubation, Quantigene 2.0 bDNA readout, top concentration 25 μM; read-out: DE-19bDNA EC50. An outline of the steps:
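HepDE19 cells (HepG2-derived, Tet-regulated HBV) switched to Tet-free medium, then treated 7 days at 37 °C with compound, 8-point titration from 25 μM, 0.5% DMSO. rcDNA quantified by bDNA with HBV probes; EC50/EC90 via 4-parameter fit. Viability (CC50) by CellTiter-Glo ATP on 5,000 cells/well after 4 days.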
Turning to `CN(C(=O)N1Cc2ccc(Cl)cc2C1)C1CNCc2[nH]c(=O)c3cc(F)c(F)cc3c21` (single isomer, unassigned) [Compound 226, 5-Chloro-N-(8,9-difluoro-6-oxo-1,2,3,4,5,6-hexahydrobenzo[c][1,7]naphthyridin-1-yl)-N-methylisoindoline-2-carboxamide], the EC50 came to 21 µM.

Staying with this experiment, now noted: Hepatitis B virus, HepDE19, 168 h, read-out: DE-19bDNA EC50 (uM), inhibition of rcDNA formation in HepDE19 cells (HepG2 derived), Tet-free medium, 7 day incubation, Quantigene 2.0 bDNA readout, top concentration 25 μM.
On to `CN(C(=O)N1Cc2ccc(C(F)(F)F)cc2C1)C1CNCc2[nH]c(=O)c3cc(F)c(F)cc3c21` (single isomer, unassigned) [Compound 231, N-(8,9-Difluoro-6-oxo-1,2,3,4,5,6-hexahydrobenzo[c][1,7]naphthyridin-1-yl)-N-methyl-5-(trifluoromethyl)isoindoline-2-carboxamide], for which the EC50 was no less than 25 µM.

Staying with this experiment, now noted: inhibition of rcDNA formation in HepDE19 cells (HepG2 derived), Tet-free medium, 7 day incubation, Quantigene 2.0 bDNA readout, top concentration 25 μM; read-out: DE-19bDNA EC50.
For the molecule `CN(C(=O)Nc1ccc(F)c(C#N)c1)C1CS(=O)(=O)Cc2[nH]c(=O)c3cc(F)c(F)cc3c21` (single isomer, unassigned) [Compound 206, 3-(3-Cyano-4-fluorophenyl)-1-(8,9-difluoro-3,3-dioxido-6-oxo-1,4,5,6-tetrahydro-2H-thiopyrano[3,4-c]isoquinolin-1-yl)-1-methylurea], the EC50 is 4.8 µM. Still for that read-out and setting: next, `CN(C(=O)Nc1ccc(F)c(Cl)c1)C1C[S+]([O-])Cc2[nH]c(=O)c3cc(F)c(F)cc3c21` (single isomer, unassigned) [Compound 207, 3-(3-Chloro-4-fluorophenyl)-1-(8,9-difluoro-3-oxido-6-oxo-1,4,5,6-tetrahydro-2H-thiopyrano[3,4-c]isoquinolin-1-yl)-1-methylurea]: 1.3 µM; `CN(C(=O)Nc1ccc(F)c(Cl)c1)C1C[S+]([O-])Cc2[nH]c(=O)c3cc(F)c(F)cc3c21` (single isomer, unassigned) [Compound 208, 3-(3-Chioro-4-fluorophenyl)-1-(8,9-difluoro-3-oxido-6-oxo-1,4,5,6-tetrahydro-2H-thiopyrano[3,4-c]isoquinolin-1-yl)-1-methylurea]: 8.5 µM. Still for that read-out and setting: next, `CN(C(=O)Nc1ccc(F)c(Cl)c1)C1C[S+]([O-])Cc2[nH]c(=O)c3cc(F)c(F)cc3c21` (single isomer, unassigned) [Compound 209, 3-(3-Chloro-4-fluorophenyl)-1-(8,9-difluoro-3-oxido-6-oxo-1,4,5,6-tetrahydro-2H-thiopyrano[3,4-c]isoquinolin-1-yl)-1-methylurea]: 0.7 µM. Regarding `CN(C(=O)Nc1ccc(F)c(Cl)c1)C1C[S+]([O-])Cc2[nH]c(=O)c3cc(F)c(F)cc3c21` (single isomer, unassigned) [Compound 210, 3-(3-Chloro-4-fluorophenyl)-1-(8,9-difluoro-3-oxido-6-oxo-1,4,5,6-tetrahydro-2H-thiopyrano[3,4-c]isoquinolin-1-yl)-1-methylurea], the EC50 is 7.1 µM. For the molecule `CN(C(=O)Nc1ccc(F)c(C#N)c1)C1C[S+]([O-])Cc2[nH]c(=O)c3cc(F)c(F)cc3c21` (single isomer, unassigned) [Compound 211, 3-(3-Cyano-4-fluorophenyl)-1-(8,9-difluoro-3-oxido-6-oxo-1,4,5,6-tetrahydro-2H-thiopyrano[3,4-c]isoquinolin-1-yl)-1-methylurea], the EC50 came out at 5.5 µM. On to `CN(C(=O)Nc1ccc(F)c(C#N)c1)C1C[S+]([O-])Cc2[nH]c(=O)c3cc(F)c(F)cc3c21` (single isomer, unassigned) [Compound 212, 3-(3-Cyano-4-fluorophenyl)-1-(8,9-difluoro-3-oxido-6-oxo-1,4,5,6-tetrahydro-2H-thiopyrano[3,4-c]isoquinolin-1-yl)-1-methylurea], for which the EC50 is no less than 25 µM. As to `CN(C(=O)Nc1ccc(F)c(C#N)c1)C1C[S+]([O-])Cc2[nH]c(=O)c3cc(F)c(F)cc3c21` (single isomer, unassigned) [Compound 213, 3-(3-Cyano-4-fluorophenyl)-1-(8,9-difluoro-3-oxido-6-oxo-1,4,5,6-tetrahydro-2H-thiopyrano[3,4-c]isoquinolin-1-yl)-1-methylurea], the EC50 came out at 1 µM. With `CN(C(=O)Nc1ccc(F)c(C#N)c1)C1C[S+]([O-])Cc2[nH]c(=O)c3cc(F)c(F)cc3c21` (single isomer, unassigned) [Compound 214, 3-(3-Cyano-4-fluorophenyl)-1-(8,9-difluoro-3-oxido-6-oxo-1,4,5,6-tetrahydro-2H-thiopyrano[3,4-c]isoquinolin-1-yl)-1-methylurea], the EC50 turned out to be 15 µM. For the molecule `CN(C(=O)Nc1ccc(F)c(C(F)F)c1)C1CNCc2[nH]c(=O)c3cc(F)c(F)cc3c21` (single isomer, unassigned) [Compound 216, 1-(8,9-Difluoro-6-oxo-1,2,3,4,5,6-hexahydrobenzo[c][1,7]naphthyridin-1-yl)-3-(3-(difluoromethyl)-4-fluorophenyl)-1-methylurea], the EC50 came out at 3.5 µM. Take `CN(C(=O)Nc1ccc(F)c(C(F)F)c1)C1CNCc2[nH]c(=O)c3cc(F)c(F)cc3c21` (single isomer, unassigned) [Compound 217, 1-(8,9-Difluoro-6-oxo-1,2,3,4,5,6-hexahydrobenzo[c][1,7]naphthyridin-1-yl)-3-(3-(difluoromethyl)-4-fluorophenyl)-1-methylurea]: the EC50 was 0.04 µM. On to `CN(C(=O)N1Cc2ccccc2C1)C1CNCc2[nH]c(=O)c3cc(F)c(F)cc3c21` (single isomer, unassigned) [Compound 222, N-(8,9-Difluoro-6-oxo-1,2,3,4,5,6-hexahydrobenzo[c][1,7]naphthyridin-1-yl)-N-methylisoindoline-2-carboxamide], for which the EC50 is no less than 25 µM. Same read-out and setting: next, `CN(C(=O)N1Cc2ccccc2C1)C1CNCc2[nH]c(=O)c3cc(F)c(F)cc3c21` (single isomer, unassigned) [Compound 223, N-(8,9-Difluoro-6-oxo-1,2,3,4,5,6-hexahydrobenzo[c][1,7]naphthyridin-1-yl)-N-methylisoindoline-2-carboxamide]: 2.3 µM; `CN(C(=O)N1Cc2ccc(F)cc2C1)C1CNCc2[nH]c(=O)c3cc(F)c(F)cc3c21` (single isomer, unassigned) [Compound 224, N-(8,9-Difluoro-6-oxo-1,2,3,4,5,6-hexahydrobenzo[c][1,7]naphthyridin-1-yl)-5-fluoro-N-methylisoindoline-2-carboxamide]: no less than 25 µM; `CN(C(=O)N1Cc2ccc(F)cc2C1)C1CNCc2[nH]c(=O)c3cc(F)c(F)cc3c21` (single isomer, unassigned) [Compound 225, N-(8,9-Difluoro-6-oxo-1,2,3,4,5,6-hexahydrobenzo[c][1,7]naphthyridin-1-yl)-5-fluoro-N-methylisoindoline-2-carboxamide]: 3.4 µM. Same read-out and setting: the same measure for `CN(C(=O)N1Cc2ccc(Cl)cc2C1)C1CNCc2[nH]c(=O)c3cc(F)c(F)cc3c21` (single isomer, unassigned) [Compound 227, 5-Chloro-N-(8,9-difluoro-6-oxo-1,2,3,4,5,6-hexahydrobenzo[c][1,7]naphthyridin-1-yl)-N-methylisoindoline-2-carboxamide]: 12 µM. As for `CN(C(=O)N1Cc2ccc(Br)cc2C1)C1CNCc2[nH]c(=O)c3cc(F)c(F)cc3c21` (single isomer, unassigned) [Compound 228, 5-Bromo-N-(8,9-difluoro-6-oxo-1,2,3,4,5,6-hexahydrobenzo[c][1,7]naphthyridin-1-yl)-N-methylisoindoline-2-carboxamide], the EC50 came out at 15 µM. As for `CN(C(=O)N1Cc2ccc(Br)cc2C1)C1CNCc2[nH]c(=O)c3cc(F)c(F)cc3c21` (single isomer, unassigned) [Compound 229, 5-Bromo-N-(8,9-difluoro-6-oxo-1,2,3,4,5,6-hexahydrobenzo[c][1,7]naphthyridin-1-yl)-N-methylisoindoline-2-carboxamide], the EC50 came to 6.7 µM. The same measure, in the same setting: next, `CNc1nc2c(c3cc(F)c(F)cc13)C(N(C)C(=O)Nc1ccc(F)c(C(F)F)c1)COC2` (single isomer, unassigned) [Compound 235, 1-(8,9-Difluoro-6-(methylamino)-1,4-dihydro-2H-pyrano[3,4-c]isoquinolin-1-yl)-3-(3-(difluoromethyl)-4-fluorophenyl)-1-methylurea]: 1.81 µM; `CNc1nc2c(c3cc(F)c(F)cc13)C(N(C)C(=O)Nc1ccc(F)c(C(F)F)c1)COC2` (single isomer, unassigned) [Compound 236, 1-(8,9-Difluoro-6-(methylamino)-1,4-dihydro-2H-pyrano[3,4-c]isoquinolin-1-yl)-3-(3-(difluoromethyl)-4-fluorophenyl)-1-methylurea]: 0.01 µM. For `CN(C(=O)Nc1ccc(F)c(C(F)F)c1)C1COCc2nc(NCCO)c3cc(F)c(F)cc3c21` (single isomer, unassigned) [Compound 237, 1-(8,9-Difluoro-6-((2-hydroxyethyl)amino)-1,4-dihydro-2H-pyrano[3,4-c]isoquinolin-1-yl)-3-(3-(difluoromethyl)-4-fluorophenyl)-1-methylurea], the EC50 was 2.62 µM.

Staying with this experiment, now noted: read-out: DE-19bDNA EC50; inhibition of rcDNA formation in HepDE19 cells (HepG2 derived), Tet-free medium, 7 day incubation, Quantigene 2.0 bDNA readout, top concentration 25 μM.
Take `CN(C(=O)N1Cc2ccc(C(F)(F)F)cc2C1)C1CNCc2[nH]c(=O)c3cc(F)c(F)cc3c21` (single isomer, unassigned) [Compound 232, N-(8,9-Difluoro-6-oxo-1,2,3,4,5,6-hexahydrobenzo[c][1,7]naphthyridin-1-yl)-N-methyl-5-(trifluoromethyl)isoindoline-2-carboxamide]: the EC50 amounted to 20 µM.
